Reference: patent US5086059A, “Bis-naphthalimides as anticancer agents” (Du Pont Merck Pharmaceutical Company, priority 1990, dated 1992)
Counter-ions that a name gives are not always drawn. Like-named read-outs stand apart in the source and are kept apart here.

Legend:
[1] = system: L1210 cells; assay: In vitro Growth Inhibitory Activity Determination (L1210, MTT); type: cell-based; details: 3 days at 37° C., read-out: ID50 (L1210)
Description: L1210 cells were maintained in RPM-1640 a medium supplemented with 10% heat inactivated fetal bovine serum and […] mercaptomethanol/liter medium (RPMI-L). B16 cells were maintained in RPMI-1640 medium supplemented with 15% heat inactivated fetal bovine serum and antibiotics (RPMI-C).
Exponential growing L1210 cells (1×10^3 cells) or B16 cells (2-3×10^3 cells) in 0.1 mL medium were seeded on day 0 in a 96-well microtiter plate. On day 1, 0.1 mL aliquot of medium containing graded concentration of test analogs was added to the initial volume. After incubation at 37° C. in a humidified incubator for 3 days, the plates were centrifuged briefly and […] of the growth medium was removed. Cell cultures were incubated with […] of 3-(4,5-dimethylthiazol-2-yl)-2,5-diphenyltetrazolium bromide (MTT; 1 mg/ml in Dulbecco's phosphate buffer saline) for 4 hr. at 37° C. The resulting purple formazan precipitate was solubilized with […] of 0.04 N HCl in isopropyl alcohol. Absorbance was read in a Titertek Multiskan MCC scanning well spectrophotometer (Flow Laboratories) at a test wavelength of 570 nm and a reference wavelength of 630 nm.
The absorbances were stored on a floppy disk on a IBM-XT and uploaded on to a VAX computer. The ID50 values were determined by a computer program that fit all of the data (8 determinations per concentration and 12 concentrations per test analog) to the following equation:
Y=((Am-Ao)/(1+(X/ID50)n))+Ao
Am=absorbance of the control cells
Ao=absorbance of the cells in the presence of highest drug conc.
ID50 =dose of drug that inhibits the growth of cells to one half that of the control cells

[2] = system: B16F10 melanoma; assay: Tumor Cell Clearance Test B16F10 Melanoma; type: in vivo, mouse; details: for CPM/Lung (Mean + SEM): labelled B16F10 cells i.v. 24 h later, lungs counted 18 h later; for CPM/Lung (Mean + SEM) / Treated/Control: N=6; for Treated/Control: T/C <0.40 considered positive
Description: One common route of cancer spread is through the blood. Very few cancer cells survive this hostile environment to go on and form metastases; NK cells and macrophages are believed to play an important role in controlling this hematogenous spread (Hanna, N. Cancer Research, 42:1337, 1982). Following the injection of various immunomodulators, macrophages and NK cells can be removed and shown to kill tumor cells in tissue culture. […] In the tumor cell clearance assay detailed below, radiolabelled tumor cells are injected intravenously (i.v.) into mice injected with an immunomodulator one day earlier. A decreased number of tumor cells, as reflected by a decreased amount of radioactivity remaining in the lungs, is used as an endpoint.
The B16 tumor line established from melanoma tumor which arose spontaneously on the skin at the base of the ear in a C57BL mouse. The B16F10 tumor subline was derived from the parent B16 line by selection for its ability to form lung tumors […] after i.v. injection and was subsequently established in vitro after 10 cycles of lung metastasis formation (Fidler, Eur. J. Cancer 9:223, 1973). The B16F10 tumor line is maintained by serial passage in vitro.
On day 0 female mice are injected intraperitoneally (i.p.) with test compound (6 mice/group) or vehicle alone (10 mice/group). Twenty-four hours later all mice are injected intravenously with 100,000 [^125 I] Iododeoxyuridine labelled B16F10 melanoma cells in 0.2 mL. Eighteen hours later mice are sacrificed and lungs removed and counted on a gamma counter.
Control and experimental group mean values are compared to the vehicle control using a Student's t-test. Poly I:C is an immunostimulant which activates macrophages and NK cells to kill and clear tumor cells faster and thus results in fewer cpm/lung. Statistical significance is set at p<0.05, and compounds with treated/control (T/C) values of <0.40 are considered positive.

## O=C1c2ccc3c4c(ccc(c24)C(=O)N1CCCNCCCCNCCCN1C(=O)c2ccc4c5c(ccc(c25)C1=O)CC4)CC3 [Example 1, 1,4-Bis-[3-(1,3,6,7-tetrahydro-1,3-dioxo-2H-indeno[6,7,1-def]isoquinoline-2-yl)propyl)-amino]butane dihydromethanesulfonate]
[1]; Mus musculus, L1210, 72 h
  IC50: 3010 nM

## O=C1c2ccc3c4c(ccc(c24)C(=O)N1CCCNCCCCNCCCN1C(=O)c2ccc4c5c(ccc(c25)C1=O)CC4)CC3 [Example 2, 1.4-Bis-[3 3.6 7-tetrahydro-1.3-dioxo-2H-indeno[6,7,1-def]isoquinoline-2-yl)propyl-amino]butane dihydrochloride]
[1]; dihydrochloride, 4320 min
  IC50: 1720 nM

## CCN(CCCCN(CC)CCCN1C(=O)c2ccc3c4c(ccc(c24)C1=O)CC3)CCCN1C(=O)c2ccc3c4c(ccc(c24)C1=O)CC3 [Example 3, 1,4-Bis-3-(1,3,6,7-tetrahydro-1,3-dioxo-2H-indeno6,7,1-def]isoquinoline-2-yl)-N-ethyl-propylamino]butane dihydrochloride]
[2]; 6.25 mg/kg i.p. on day 0
  CPM/Lung (Mean + SEM): 27953 + 2567 CPM/Lung
[2]; 6.25 mg/kg i.p.
  Treated/Control: 0.90
[2]; 12.5 mg/kg i.p. on day 0
  CPM/Lung (Mean + SEM): 24905 + 2497 CPM/Lung
[2]; 12.5 mg/kg i.p.
  Treated/Control: 0.80
[2]; 25 mg/kg i.p. on day 0
  CPM/Lung (Mean + SEM): 6992 + 1417 CPM/Lung
[2]; 25 mg/kg i.p., *p < 0.001 compared to vehicle control
  Treated/Control: 0.23
[2]; 50 mg/kg i.p. on day 0
  CPM/Lung (Mean + SEM): 3558 + 476 CPM/Lung
[2]; 50 mg/kg i.p., *p < 0.001 compared to vehicle control
  Treated/Control: 0.11
[2]; result in words, mice, B16F10 tumor cell clearance
  activating nonspecific immune cells against tumor cells: effective in activating nonspecific immune cells against the B16F10 melanoma
[1]; Mus musculus, L1210, 72 h
  IC50: 22 nM

## O=C1c2ccc3c4c(ccc(c24)C(=O)N1CCCCNCCCN1C(=O)c2ccc4c5c(ccc(c25)C1=O)CC4)CC3 [Example 4, 4-3-(1,3,6,7-Tetrahydro-1,3-dioxo-2H-indeno6,7,1-def]isoquinoline-2-yl)propyl-amino1-1-(1,3,6,7-tetrahydro-1,3-dioxo-2H-indeno-6,7,1-def]isoquinoline-2-yl)butane methanesulfonate]
[1]; Mus musculus, L1210, 72 h
  IC50: 290 nM

## Poly I:C [reference compound]
[2]; 5 mg/kg i.p. on day 0
  CPM/Lung (Mean + SEM): 1044 + 87 CPM/Lung
[2]; 5 mg/kg i.p., *p < 0.001 compared to vehicle control
  Treated/Control: 0.03
